Assay results as given in patent US11117890B2, “Substituted isoindole allosteric EGFR inhibitors” (Hoffmann-La Roche Inc., priority 2017, dated 2021).

Biological target: T1, Phospho-EGFR in H1975 cell line (Homo sapiens, UniProt P00533, L858R/T790M)
T1 construct: H1975 cell line was obtained from American Type Culture Collection; host or cells: H1975
Assay: HTRF Phospo EGFR Assay (Cellular)
Type: cell-based
Conditions: H1975 cells; 6 hours compound incubation in starving medium; HTRF anti-Phospho-EGFR readout
Experimental: HTRF Phospo EGFR Assay (Cellular)
H1975 cell line was obtained from American Type Culture Collection (Manassas, Va., USA). Cells were maintained at 37° C., 5% CO2 in complete Media RPMI 1640 without phenol red containing 0.3 mg/ml glutamine, 100 IU/ml penicillin, and […] (Gibco) supplemented with 10% fetal bovine serum (FBS) (Gibco). Compounds were diluted into starving medium RPMI 1640 Media without phenol red containing 0.3 mg/ml glutamine, 100 IU/ml penicillin, and […] (Gibco).
Cells were cultured overnight in a 384-well white plate (8000 cells/well) using 8 μl of complete medium/well. Cells were washed two times with 20 μl of starving medium. Media was removed by tapping plates on tissue and subsequently 8 μl of fresh starving medium/well was added. Then 4 μl/well of the 3×compound solution, containing a half-log dilution series of the compound or DMSO in starving medium, were added to the cells. After 6 hours at 37° C., 5% CO2 cells were lysed by adding to the compound mix 4 μl/well of the supplemented lysis buffer, followed by incubation for 30 min at room temperature with shaking. Lysates were stored at −20° C. overnight. The following day plates were thawed and 2 μl of anti-Phospho-EGFR Cryptate and 2 μl of anti-Phospho-EGFR-d2 antibody solutions prepared in the detection buffer were added. The plates were then incubated for at least 4 h at room temperature before reading the fluorescence emission at 620 and 665 nm using PHERAstar FX plate reader (BMG Labtech).

T1 sequence (P00533 25-1210 T790M/L858R): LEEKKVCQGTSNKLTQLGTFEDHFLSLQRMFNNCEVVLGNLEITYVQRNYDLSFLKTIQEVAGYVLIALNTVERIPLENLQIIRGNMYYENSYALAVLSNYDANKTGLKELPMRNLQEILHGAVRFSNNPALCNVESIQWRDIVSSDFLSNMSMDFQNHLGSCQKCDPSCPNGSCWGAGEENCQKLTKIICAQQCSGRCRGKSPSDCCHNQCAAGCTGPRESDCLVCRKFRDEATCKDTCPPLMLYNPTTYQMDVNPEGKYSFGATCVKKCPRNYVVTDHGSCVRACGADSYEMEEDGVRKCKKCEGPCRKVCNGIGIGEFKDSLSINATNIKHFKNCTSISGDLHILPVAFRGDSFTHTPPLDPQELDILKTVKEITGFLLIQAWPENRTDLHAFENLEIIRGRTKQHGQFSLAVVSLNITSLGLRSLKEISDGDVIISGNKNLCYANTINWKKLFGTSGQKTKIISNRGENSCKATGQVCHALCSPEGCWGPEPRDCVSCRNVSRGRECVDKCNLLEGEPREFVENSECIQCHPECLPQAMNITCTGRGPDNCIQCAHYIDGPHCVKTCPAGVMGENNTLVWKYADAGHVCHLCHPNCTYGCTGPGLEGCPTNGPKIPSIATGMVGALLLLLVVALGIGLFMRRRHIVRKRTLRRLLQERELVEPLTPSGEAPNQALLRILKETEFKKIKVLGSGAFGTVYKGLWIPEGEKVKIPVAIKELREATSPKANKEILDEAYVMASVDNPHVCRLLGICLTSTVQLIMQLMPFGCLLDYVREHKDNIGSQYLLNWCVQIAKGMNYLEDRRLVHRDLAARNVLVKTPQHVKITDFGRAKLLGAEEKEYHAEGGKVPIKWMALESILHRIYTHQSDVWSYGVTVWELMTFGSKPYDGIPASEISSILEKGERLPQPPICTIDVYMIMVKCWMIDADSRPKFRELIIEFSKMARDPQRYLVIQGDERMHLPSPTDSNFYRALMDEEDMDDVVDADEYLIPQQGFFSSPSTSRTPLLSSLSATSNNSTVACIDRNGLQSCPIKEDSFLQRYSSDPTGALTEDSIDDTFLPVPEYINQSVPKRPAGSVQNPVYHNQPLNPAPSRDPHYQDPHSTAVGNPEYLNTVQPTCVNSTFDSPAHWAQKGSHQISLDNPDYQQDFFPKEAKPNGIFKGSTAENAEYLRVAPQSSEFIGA

Row | SMILES | IC50 [nM]
1 | O=C(Nc1nccs1)C(c1ccccc1)N1Cc2ccc(C#Cc3ccccc3)cc2C1=O (racemic) [Example 1, (2RS)-2-[1-Oxo-6-(2-phenylethynyl)isoindolin-2-yl]-2-phenyl-N-thiazol-2-yl-acetamide] | 45
2 | Nc1ccc(C#Cc2ccc3c(c2)C(=O)N(C(C(=O)Nc2nccs2)c2n[nH]c4c2CCC4)C3)cn1 (racemic) [Example 8, (2RS)-2-[6-[2-(6-Amino-3-pyridyl)ethynyl]-1-oxo-isoindolin-2-yl]-2-(1,4,5,6-tetrahydrocyclopenta[c]pyrazol-3-yl)-N-thiazol-2-yl-acetamide] | 1.9
3 | Nc1ccc(C#Cc2ccc3c(c2)C(=O)N(C(C(=O)Nc2nccs2)c2cccc(F)c2)C3)cn1 (racemic) [Example 4, (2RS)-2-[6-[2-(6-Amino-3-pyridyl)ethynyl]-1-oxo-isoindolin-2-yl]-2-(3-fluorophenyl)-N-thiazol-2-yl-acetamide] | 9
4 | Cc1c(C#Cc2ccc(N)nc2)ccc2c1C(=O)N(C(C(=O)Nc1nccs1)c1cc(F)ccc1O)C2 (racemic) [Example 21, (2RS)-2-[6-[2-(6-Amino-3-pyridyl)ethynyl]-7-methyl-1-oxo-isoindolin-2-yl]-2-(5-fluoro-2-hydroxy-phenyl)-N-thiazol-2-yl-acetamide] | 3

More lines, now with the values ahead:

Row | IC50 [nM] | SMILES
5 | 1 | O=C(Nc1nccs1)C(c1cc(F)ccc1O)N1Cc2ccc(C#Cc3cccnc3)cc2C1=O (racemic) [Example 16, (2RS)-2-(5-Fluoro-2-hydroxy-phenyl)-2-[1-oxo-6-[2-(3-pyridyl)ethynyl]isoindolin-2-yl]-N-thiazol-2-yl-acetamide]
6 | 6 | O=C(Nc1nccs1)C(c1cc(F)ccc1O)N1Cc2ccc(C#Cc3ccccc3)cc2C1=O (racemic) [Example 17, (2RS)-2-(5-Fluoro-2-hydroxy-phenyl)-2-[1-oxo-6-(2-phenylethynyl)isoindolin-2-yl]-N-thiazol-2-yl-acetamide]
7 | 69 | CCN1CCN(Cc2ccc(C#Cc3ccc4c(c3)C(=O)N(C(C(=O)Nc3nccs3)c3ccccc3)C4)cc2)CC1 (racemic) [Example 13, (2RS)-2-[6-[2-[4-[(4-Ethylpiperazin-1-yl)methyl]phenyl]ethynyl]-1-oxo-isoindolin-2-yl]-2-phenyl-N-thiazol-2-yl-acetamide]
8 | 7 | CCN1CCN(Cc2ccc(C#Cc3ccc4c(c3)C(=O)N(C(C(=O)Nc3nccs3)c3cc(F)ccc3O)C4)cc2)CC1 (racemic) [Example 31, (2RS)-2-[6-[2-[4-1(4-Ethylpiperazin-1-yl)methyl]phenyl]ethynyl1-1-oxo-isoindolin-2-yl]-2-(5-fluoro-2-hydroxy-phenyl)-N-thiazol-2-yl-acetamide]
9 | 8 | O=C(Nc1nccs1)C(c1cc(F)ccc1O)N1Cc2ccc(C#Cc3ccc(CN4CCNCC4)cc3)cc2C1=O (racemic) [Example 29, (2RS)-2-(5-Fluoro-2-hydroxy-phenyl)-2-[1-oxo-6-[2-[4-(piperazin-1-ylmethyl)phenyl]ethynyl]isoindolin-2-yl]-N-thiazol-2-yl-acetamide]
